Reference: patent publication US20100160349A1, “TRIAZOLOPYRIMIDINE DERIVATIVES AS GLYCOGEN SYNTHASE KINASE 3 INHIBITORS” (priority 2005, published 2010)
Structures can show the parent of a compound that is named as a salt.

Experiments:
GSK3β = GSK3β (Homo sapiens, UniProt P49841); assay: GSK3beta assay (SPA, biotinylated phosphorylated CREB peptide, ATP-P33); format: biochemical; conditions: −log IC50 (M); reported as ranges; 5.7 ng/μl GSK3β, 1 μM ATP, room temperature, one hour; read-out: pIC50 (GSK3beta) (converted)
Protocol: (§1) GSK3beta assays were performed at room temperature in a 100 μl reaction volume of 25 mM Tris (pH 7.4) containing 10 mM MgCl2.6H2O, 1 mM DTT, 0.1 mg/ml BSA, 5% glycerol and containing 5.7 ng/μl GSK3β, 5 μM biotinylated phosphorylated CREB peptide, 1 μM ATP, 0.85 μCi/ml ATP-P^33 and a suitable amount of a test compound of formula (I). After one hour, the reaction was terminated by adding 70 μl of Stop mix (0.1 mM ATP, 5 mg/ml streptavidin coated PVT SPA bead pH 11.0). The beads to which the phosphorylated CREB peptide is attached were allowed to settle overnight and the radioactivity of the beads was counted in a microtiterplate scintillation counter and compared with the results obtained in a control experiment (without the presence of a test compound) in order to determine the percentage of GSK3β inhibition. The IC50 value, i.e. the concentration (M) of the test compound at which 50% of GSK3β is inhibited, was calculated from the dose response curve obtained by performing the above-described GSK3β assay in the presence of different amounts of the test compound.

GSK3alpha = GSK3alpha (Homo sapiens, UniProt P49840); assay: GSK3alpha assay (same way as the GSK3beta assay); format: biochemical; conditions: −log IC50 (M); reported as ranges; 0.25 ng/μl GSK3alpha, 1 μM ATP, room temperature, one hour; read-out: pIC50 (GSK3alpha) (converted)
Protocol: as §1
The GSK3alpha assay was performed in the same way as described above for the GSK3beta assay except for the concentration of GSK3alpha which is 0.25 ng/μl.

Sequence of GSK3β (P49841 whole entry, species assumed): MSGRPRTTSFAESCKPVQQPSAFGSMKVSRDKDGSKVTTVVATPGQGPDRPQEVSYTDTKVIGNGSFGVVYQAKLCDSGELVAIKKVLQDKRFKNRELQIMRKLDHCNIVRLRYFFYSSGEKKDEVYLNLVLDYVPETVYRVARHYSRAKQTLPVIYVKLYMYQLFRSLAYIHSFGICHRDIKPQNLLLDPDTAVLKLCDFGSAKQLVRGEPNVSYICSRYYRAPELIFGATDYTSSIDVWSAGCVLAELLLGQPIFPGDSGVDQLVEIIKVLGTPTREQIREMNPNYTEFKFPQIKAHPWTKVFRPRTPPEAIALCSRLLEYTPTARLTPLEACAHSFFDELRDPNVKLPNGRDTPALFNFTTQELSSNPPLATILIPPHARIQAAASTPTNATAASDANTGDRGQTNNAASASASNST
Sequence of GSK3alpha (P49840 whole entry, species assumed): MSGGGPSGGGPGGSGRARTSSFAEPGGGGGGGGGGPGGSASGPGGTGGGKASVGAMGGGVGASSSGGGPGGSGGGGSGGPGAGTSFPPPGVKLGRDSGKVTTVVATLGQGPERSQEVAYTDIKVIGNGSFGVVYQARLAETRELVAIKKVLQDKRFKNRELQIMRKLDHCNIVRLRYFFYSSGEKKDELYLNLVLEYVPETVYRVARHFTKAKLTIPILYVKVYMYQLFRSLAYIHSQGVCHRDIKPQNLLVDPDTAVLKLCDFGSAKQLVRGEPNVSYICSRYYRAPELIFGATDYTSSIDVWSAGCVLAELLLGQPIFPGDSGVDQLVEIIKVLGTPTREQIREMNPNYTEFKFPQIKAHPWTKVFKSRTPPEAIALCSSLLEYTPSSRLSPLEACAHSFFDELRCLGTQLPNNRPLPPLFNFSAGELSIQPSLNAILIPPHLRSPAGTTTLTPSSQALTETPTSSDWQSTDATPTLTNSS

Compound: NCc1cccc(-n2nnc3cnc(Nc4ccccc4)nc32)c1 (as salt: HCl) [Co. No. 9]
- melting point: > 260 °C

Compound: N#CCc1cccc(-n2nnc3cnc(Nc4ccccc4)nc32)c1 [Co. No. 1]
- IC50 (GSK3β): < 1e-08 M
- IC50 (GSK3alpha): < 1e-08 M
- melting point: 218 to 222 °C

Compound: COCCOCc1cccc(-n2nnc3cnc(Nc4ccccc4)nc32)c1 [Co. No. 2]
- IC50 (GSK3β): < 1e-08 M
- IC50 (GSK3alpha): < 1e-08 M
- melting point: 143 °C

Compound: COCCOc1cccc(-n2nnc3cnc(Nc4ccccc4)nc32)c1 [Co. No. 3]
- IC50 (GSK3β): 1e-08 to 1e-07 M
- IC50 (GSK3alpha): < 1e-08 M
- melting point: 164 °C

Compound: c1ccc(Nc2ncc3nnn(-c4ccccc4)c3n2)cc1 [Co. No. 4]
- IC50 (GSK3β): 1e-08 to 1e-07 M
- IC50 (GSK3alpha): 1e-08 to 1e-07 M
- melting point: 194 to 198 °C

Compound: CC(C)(C)OC(=O)NCc1cccc(-n2nnc3cnc(Nc4ccccc4)nc32)c1 [Co. No. 5]
- IC50 (GSK3β): < 1e-08 M
- IC50 (GSK3alpha): < 1e-08 M
- melting point: 196 to 198 °C

Compound: O=C(NCc1cccc(-n2nnc3cnc(Nc4ccccc4)nc32)c1)C12CC3CC(CC(C3)C1)C2 [Co. No. 6]
- IC50 (GSK3β): > 1e-07 M
- IC50 (GSK3alpha): > 1e-07 M

Compound: CC(C)CC(=O)NCc1cccc(-n2nnc3cnc(Nc4ccccc4)nc32)c1 [Co. No. 7]
- IC50 (GSK3β): < 1e-08 M
- IC50 (GSK3alpha): < 1e-08 M

Compound: O=C(O)Cc1cccc(-n2nnc3cnc(Nc4ccccc4)nc32)c1 [Co. No. 8]
- IC50 (GSK3β): > 1e-07 M
- IC50 (GSK3alpha): 1e-08 to 1e-07 M
- melting point: 241 °C

Compound: NCc1cccc(-n2nnc3cnc(Nc4ccccc4)nc32)c1 [Co. No. 9]
- IC50 (GSK3β): 1e-08 to 1e-07 M
- IC50 (GSK3alpha): < 1e-08 M

Compound: OCCc1cccc(-n2nnc3cnc(Nc4ccccc4)nc32)c1 [Co. No. 10]
- IC50 (GSK3β): < 1e-08 M
- IC50 (GSK3alpha): < 1e-08 M

Compound: COCc1cccc(-n2nnc3cnc(Nc4ccccc4)nc32)c1 [Co. No. 11]
- IC50 (GSK3β): < 1e-08 M
- IC50 (GSK3alpha): < 1e-08 M

Compound: CC(=O)NCc1cccc(-n2nnc3cnc(Nc4ccccc4)nc32)c1 [Co. No. 12]
- IC50 (GSK3β): ≤ 1e-08 M
- IC50 (GSK3alpha): < 1e-08 M

Compound: Fc1cccc(-n2nnc3cnc(Nc4ccccc4)nc32)c1 [Co. No. 13]
- IC50 (GSK3alpha): 1e-08 to 1e-07 M

Compound: O=C(NCc1cccc(-n2nnc3cnc(Nc4ccccc4)nc32)c1)C1CC1 [Co. No. 14]
- IC50 (GSK3alpha): > 1e-06 M

Compound: CCOC(=O)NCc1cccc(-n2nnc3cnc(Nc4ccccc4)nc32)c1 [Co. No. 15]
- IC50 (GSK3β): < 1e-08 M
- IC50 (GSK3alpha): < 1e-08 M

Compound: OCCc1ccc(-n2nnc3cnc(Nc4ccccc4)nc32)cc1 [Co. No. 16]
- IC50 (GSK3β): 1e-08 to 1e-07 M
- IC50 (GSK3alpha): 1e-08 to 1e-07 M

Compound: NC(=O)Cc1cccc(-n2nnc3cnc(Nc4ccccc4)nc32)c1 [Co. No. 17]
- IC50 (GSK3β): < 1e-08 M
- IC50 (GSK3alpha): < 1e-08 M
